We go through one compound from patent US20250230470A1, “SAFETY SWITCHES TO CONTROL IN VITRO AND IN VIVO PROLIFERATION OF CELL THERAPY PRODUCTS” (Sana Biotechnology, Inc., priority 2024, published 2025).

Holding throughout (type): cell-based
The subject of test [1] is CDA_CDK1 pancreatic progenitors. Nature of the test: Ki67 staining by flow cytometry of pancreatic progenitor cells untreated or treated with 5-FC. The conditions noted are these: CDA_CDK1 pancreatic progenitor culture; 100 μM 5-FC. The protocol: (§1) In order to test whether the CDA-induced killing was specific to proliferative cells, pancreatic progenitor cells, untreated or treated with 100 μM of 5-FC, were stained for proliferation marker Ki67 and analyzed by flow cytometry.
On the technique in general: Flow cytometry measures light scatter and fluorescence of single cells or particles in a stream.

In test [2] the test system is CDA_AAVS1 pancreatic progenitors. The description is as above. The conditions noted are these: 100 μM 5-FC. The protocol:
as §1

In test [3] the test system is CDA_AURKB pancreatic progenitors. The test is described as above. The conditions noted are these: 100 μM 5-FC. The protocol: as §1
In test [4] the test system is CDA_AAVS1 iPSCs and pancreatic progenitors. Nature of the test: Cell viability after 5-FC (CDA kill switch) in directed differentiation. The conditions noted are these: 100 μM 5-FC. The method, then: (§2) To validate iCaspase 9 and cytosine deaminase (CDA) kill switch function in vitro, undifferentiated iPSCs and differentiated pancreatic progenitors with either iC9 or CDA knocked into the AURKB or CDK1 loci were tested for selective killing of pluripotent and proliferative cells in a directed differentiation into beta islet cells.
(§3) The kill switch function of CDA, which is inherently specific to proliferative cells, at the AURKB and CDK1 loci was tested in pancreatic progenitor cells generated by directed differentiation from CDA_AURKB iPSCs or CDA_CDK1 iPSCs. […] The partial loss-of-function was similarly observed in the control cell lines with CDA knocked into the AAVS1 locus.

Test [5] concerns control iPSC (dko) and day 12 pancreatic progenitor cells. The test is described as above. The conditions noted are these: increasing concentrations of 5-FC. The method, then: as §2, §3
The subject of test [6] is CDA_CDK1 iPSCs and pancreatic progenitors. Described as above. The protocol: as §2, §3
Test [7] deals with CDA_AURKB iPSCs and pancreatic progenitors. Described as above. The protocol: as §2, §3

As to `Nc1nc(=O)[nH]cc1F` [5-FC, 5-fluorocytosine], the “clearance of Ki-67 expressing cells” value in test [1] is recorded as “clearance of most of the proliferative cells”; in test [2] it was “clearance of most of the proliferative cells”; in test [3] it was “a large subset of Ki-67 expressing cells was cleared”. Also, the cell viability entry in test [4] (CDA_AAVS1 iPSCs) was “no viable CDA_AAVS1 iPSCs”; in test [5] it was “maintained viability”; in test [6] (CDA_CDK1 iPSCs, 100 μM 5-FC) it was “complete cell death”; in test [7] (CDA_AURKB iPSCs, about 100 μM 5-FC), “complete cell death”. Also, the viability at 100 µM in test [4] (iPSC, read-out: cells remained viable, CDA_AAVS1 pancreatic progenitors) is 50%. Moreover, the cell killing entry is “partially lost CDA function” in test [6] (CDA_CDK1 pancreatic progenitors, day 12 of differentiation) and “partial loss of CDA function” in test [7] (CDA-AURKB pancreatic progenitors, day 12 of differentiation). Further, the “5-FC concentration at which viability began to decrease” value in test [7] (CDA_AURKB iPSCs) is on record as “about 5 μM”.
